Data from ChEMBL document CHEMBL1134201, “Exploring the relationship between binding modes of 9-(aminomethyl)-9,10-dihydroanthracene and cyproheptadine analogues at the 5-HT2A serotonin receptor” (Bioorg Med Chem Lett, 2001).

Legend:
[1] = target: T1, 5-hydroxytryptamine receptor 2A (Rattus norvegicus, UniProt P14842); assay: Binding affinity against 5-hydroxytryptamine 2A receptor from rat forebrain using [3H]ketanserin as radioligand
[2] = target: T1, 5-hydroxytryptamine receptor 2A; assay: Binding affinity against 5-hydroxytryptamine 2A receptor expressed NIH3T3 cells using [3H]ketanserin; assay type: cell-based

T1 sequence (P14842 whole entry): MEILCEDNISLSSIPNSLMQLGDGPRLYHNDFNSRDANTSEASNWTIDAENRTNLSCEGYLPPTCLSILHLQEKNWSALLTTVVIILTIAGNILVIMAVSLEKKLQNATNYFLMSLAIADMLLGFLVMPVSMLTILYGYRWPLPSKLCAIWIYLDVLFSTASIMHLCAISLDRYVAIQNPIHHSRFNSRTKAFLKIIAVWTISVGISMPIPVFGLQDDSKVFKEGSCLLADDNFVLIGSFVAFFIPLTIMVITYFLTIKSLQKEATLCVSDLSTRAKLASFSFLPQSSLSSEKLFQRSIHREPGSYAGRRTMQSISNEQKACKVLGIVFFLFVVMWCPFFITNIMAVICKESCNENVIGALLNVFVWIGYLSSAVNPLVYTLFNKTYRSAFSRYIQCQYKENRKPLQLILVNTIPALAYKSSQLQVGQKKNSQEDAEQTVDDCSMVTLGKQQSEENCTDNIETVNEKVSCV

Ki [1]	Ki [2]	Compound
355 nM		CC(=C1CCN(C)CC1)c1ccccc1
4 nM		CN1CCC(=C2c3ccccc3Oc3ccccc32)CC1
	65 nM	NCC1c2ccccc2Sc2ccccc21
9 nM		CN1CCC(=C2c3ccccc3CCc3ccccc32)CC1
	170 nM	NCC1c2ccccc2Oc2ccccc21
13 nM		CN1CCC(=C(c2ccccc2)c2ccccc2)CC1
199 nM		CN1CCC(=C2c3ccccc3-c3ccccc32)CC1
	0.7 nM	CN1CCC(=C2c3ccccc3Cc3ccccc32)CC1
	112 nM	NCC1c2ccccc2CCc2ccccc21
2.5 nM		CN1CCC(=C2c3ccccc3Sc3ccccc32)CC1 [PIMETHIXENE]
